# Molecular target: T1, human mAChR M1 (Homo sapiens, UniProt P11229)
# T1 sequence (P11229 1-460): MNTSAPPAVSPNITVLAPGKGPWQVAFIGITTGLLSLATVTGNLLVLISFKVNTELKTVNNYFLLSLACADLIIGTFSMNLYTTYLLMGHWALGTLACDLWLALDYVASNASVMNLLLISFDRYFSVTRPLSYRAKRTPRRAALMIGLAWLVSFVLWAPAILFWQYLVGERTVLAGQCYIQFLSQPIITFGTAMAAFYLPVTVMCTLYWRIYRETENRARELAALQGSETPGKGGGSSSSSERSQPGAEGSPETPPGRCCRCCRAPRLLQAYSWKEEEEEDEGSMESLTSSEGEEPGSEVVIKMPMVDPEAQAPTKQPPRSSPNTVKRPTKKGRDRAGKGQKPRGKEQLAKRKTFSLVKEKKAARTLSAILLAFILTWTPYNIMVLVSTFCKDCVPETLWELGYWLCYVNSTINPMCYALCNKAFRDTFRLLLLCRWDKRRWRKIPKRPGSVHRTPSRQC
# Experiment: mAChR M1 cell-based functional assay: calcium mobilization, positive allosteric modulator mode (increase in EC20 acetylcholine response)
# Details: Table 2, human M1; for EC50: read-out: Human M1 EC50; for Emax: read-out: Human M1 Emax (%)
# Summary of the method: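 Calcium-flux assay in CHO-K1 cells stably expressing human M1, loaded with Fluo-4 AM (50 min, 37 °C) and read at 1 Hz. Compound (11-point, 1:3 series) was added at 4 s, EC20 acetylcholine at 144 s and EC80 at 230 s. PAM activity is the concentration-dependent rise in the EC20 response, fitted with a four-parameter logistic.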
Compound,EC50,Emax
"Cn1ncc2nc(C(=O)N[C@H]3CCCC[C@@H]3O)cc(Cc3ccc(-n4cccn4)cc3)c21 [Compound 498, N-[(1S,2S)-2-hydroxycyclohexyl]-1-methyl-7-[(4-pyrazol-1-ylphenyl)methyl]pyrazolo-[4,3-b]pyridine-5-carboxamide]",428 nM,67.3%
"Cn1ncc2nc(C(=O)N[C@H]3CCOC[C@@H]3O)cc(Cc3ccc(-n4cccn4)cc3)c21 [Compound 499, N-[(3R,4S)-3-hydroxytetrahydropyran-4-yl]-1-methyl-7-[(4-pyrazol-1-ylphenyl)methyl]-pyrazolo[4,3-b]pyridine-5-carboxamide]",267 nM,65.3%
"Cn1ncc2nc(C(=O)NC3CC4(COC4)C3)cc(Cc3ccc(-n4cccn4)cc3)c21 [Compound 500, 1-methyl-N-(2-oxaspiro[3.3]heptan-6-yl)-7-[(4-pyrazol-1-ylphenyl)methyl]pyrazolo-[4,3-b]pyridine-5-carboxamide]",> 10000 nM,63.1%
"Cn1ncc2nc(C(=O)NCC3CCO3)cc(Cc3ccc(-n4cccn4)cc3)c21 (stereo not drawn) [Compound 501, 1-methyl-N-(oxetan-2-ylmethyl)-7-[(4-pyrazol-1-ylphenyl)methyl]pyrazolo[4,3-b]-pyridine-5-carboxamide]",> 10000 nM,57.4%
"Cn1ncc2nc(C(=O)NC[C@H]3CCCO3)cc(Cc3ccc(-n4cccn4)cc3)c21 [Compound 502, 1-methyl-7-[(4-pyrazol-1-ylphenyl)methyl]-N-[[(2R)-tetrahydrofuran-2-yl]methyl]-pyrazolo[4,3-b]pyridine-5-carboxamide]",4140 nM,67.2%
"Cn1ccc(-c2ccc(Cc3cc(C(=O)NC4CCOCC4)nc4ccn(C)c34)cn2)n1 [Compound 503, 1-methyl-7-[[6-(1-methylpyrazol-3-yl)-3-pyridyl]methyl]-N-tetrahydropyran-4-yl-pyrrolop,2-blpyridine-5-carboxamide;]",1560 nM,66.6%
"Cn1ccc(-c2ccc(Cc3cc(C(=O)NC4CCOC(C)(C)C4)nc4ccn(C)c34)cn2)n1 (stereo not drawn) [Compound 504, N-(2,2-dimethyltetrahydropyran-4-yl)-1-methyl-7-[[6-(1-methylpyrazol-3-yl)-3-pyridyl]methyl]pyrrolo[3,2-b]pyridine-5-carboxamide;]",1350 nM,79.5%
"Cn1ccc(-c2ccc(Cc3cc(C(=O)NC4CCOCC4(C)C)nc4ccn(C)c34)cn2)n1 (stereo not drawn) [Compound 505, N-(3,3-dimethyltetrahydropyran-4-yl)-1-methyl-7-[[6-(1-methylpyrazol-3-yl)-3-pyridyl]methyl]pyrrolo[3,2-b]pyridine-5-carboxamide;]",752 nM,79.4%
"CC1CC(NC(=O)c2cc(Cc3ccc(-c4ccn(C)n4)nc3)c3c(ccn3C)n2)CC(C)O1 (stereo not drawn) [Compound 506, N-(2,6-dimethyltetrahydropyran-4-yl)-1-methyl-7-[[6-(1-methylpyrazol-3-yl)-3-pyridyl]methyl]pyrrolo[3,2-b]pyridine-5-carboxamide;]",7120 nM,78.2%
"Cn1ccc(-c2ccc(Cc3cc(C(=O)NC4CC5(COC5)C4)nc4ccn(C)c34)cn2)n1 [Compound 507, 1-methyl-7-[[6-(1-methylpyrazol-3-yl)-3-pyridyl]methyl]-N-(2-oxaspiro[3.3]heptan-6-yl)pyrrolo[3,2-b]pyridine-5-carboxamide;]",985 nM,77.6%
"Cn1ccc(-c2ccc(Cc3cc(C(=O)NCC4CCOCC4)nc4ccn(C)c34)cn2)n1 [Compound 508, 1-methyl-7-[[6-(1-methylpyrazol-3-yl)-3-pyridyl]methyl]-N-(tetrahydropyran-4-ylmethyl)pyrrolo[3,2-b]pyridine-5-carboxamide;]",2310 nM,79.9%
"Cn1ccc(-c2ccc(Cc3cc(C(=O)NCC4CCOC4)nc4ccn(C)c34)cn2)n1 (stereo not drawn) [Compound 509, 1-methyl-7-[[6-(1-methylpyrazol-3-yl)-3-pyridyl]methyl]-N-(tetrahydrofuran-3-ylmethyl)pyrrolo[3,2-b]pyridine-5-carboxamide;]",4320 nM,75.4%
